Data from ChEMBL document CHEMBL3431459, “Roche carnitine palmitoyltransferase modulator screening data (supplementary data associated with the publication CHEMBL2216752)”.
In brackets after ≈: the same amount, converted by molar mass.

Columns and labels:
[1] = biological target: T1, Carnitine O-palmitoyltransferase 1, muscle isoform (Homo sapiens, UniProt Q92523); experiment: SUPPLEMENTARY: Inhibition of Carnitine palmitoyltransferase 1, muscle isoform; set-up: species or system Muscle tissue
T1 sequence (Q92523 whole entry): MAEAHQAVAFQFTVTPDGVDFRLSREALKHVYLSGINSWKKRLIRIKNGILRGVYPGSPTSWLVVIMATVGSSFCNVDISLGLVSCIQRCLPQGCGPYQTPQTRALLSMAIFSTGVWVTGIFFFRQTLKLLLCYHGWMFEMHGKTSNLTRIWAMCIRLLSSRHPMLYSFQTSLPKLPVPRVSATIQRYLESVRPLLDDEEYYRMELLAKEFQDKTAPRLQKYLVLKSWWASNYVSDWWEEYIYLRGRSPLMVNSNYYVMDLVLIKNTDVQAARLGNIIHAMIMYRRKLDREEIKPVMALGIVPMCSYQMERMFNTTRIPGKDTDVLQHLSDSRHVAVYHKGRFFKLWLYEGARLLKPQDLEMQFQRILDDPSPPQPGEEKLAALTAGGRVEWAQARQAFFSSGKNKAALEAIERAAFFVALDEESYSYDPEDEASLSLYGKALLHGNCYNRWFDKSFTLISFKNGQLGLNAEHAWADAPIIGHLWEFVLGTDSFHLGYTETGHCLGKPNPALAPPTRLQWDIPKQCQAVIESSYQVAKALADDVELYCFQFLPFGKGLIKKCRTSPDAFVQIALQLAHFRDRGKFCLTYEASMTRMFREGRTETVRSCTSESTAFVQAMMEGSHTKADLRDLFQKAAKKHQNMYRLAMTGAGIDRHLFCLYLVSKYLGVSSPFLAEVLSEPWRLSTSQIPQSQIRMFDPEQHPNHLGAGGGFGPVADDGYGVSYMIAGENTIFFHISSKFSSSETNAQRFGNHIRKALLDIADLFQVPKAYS

[2] = biological target: T2, Carnitine O-palmitoyltransferase 2, mitochondrial (Homo sapiens, UniProt P23786); experiment: (§1) SUPPLEMENTARY: Inhibition of Carnitine palmitoyltransferase 2
T2 sequence (P23786 whole entry): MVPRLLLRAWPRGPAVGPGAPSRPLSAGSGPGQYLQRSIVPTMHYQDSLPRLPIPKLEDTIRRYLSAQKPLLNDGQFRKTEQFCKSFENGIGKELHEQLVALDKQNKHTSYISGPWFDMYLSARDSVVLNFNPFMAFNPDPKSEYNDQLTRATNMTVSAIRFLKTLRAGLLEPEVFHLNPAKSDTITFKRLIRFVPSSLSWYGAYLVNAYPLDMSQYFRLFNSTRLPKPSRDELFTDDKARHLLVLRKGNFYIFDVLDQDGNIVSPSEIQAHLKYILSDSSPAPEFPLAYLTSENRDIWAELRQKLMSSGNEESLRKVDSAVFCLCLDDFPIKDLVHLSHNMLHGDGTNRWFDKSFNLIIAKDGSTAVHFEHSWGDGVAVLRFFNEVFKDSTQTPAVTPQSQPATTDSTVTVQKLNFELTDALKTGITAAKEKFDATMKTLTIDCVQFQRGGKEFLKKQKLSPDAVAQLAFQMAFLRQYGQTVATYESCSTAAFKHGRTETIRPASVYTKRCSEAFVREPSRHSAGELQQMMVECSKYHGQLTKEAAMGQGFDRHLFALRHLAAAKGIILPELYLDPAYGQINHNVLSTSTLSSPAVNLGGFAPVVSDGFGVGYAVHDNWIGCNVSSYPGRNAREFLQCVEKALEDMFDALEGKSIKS

[3] = biological target: T3, Carnitine O-palmitoyltransferase 2, mitochondrial (Rattus norvegicus, UniProt P18886); experiment: as §1
T3 sequence (P18886 whole entry): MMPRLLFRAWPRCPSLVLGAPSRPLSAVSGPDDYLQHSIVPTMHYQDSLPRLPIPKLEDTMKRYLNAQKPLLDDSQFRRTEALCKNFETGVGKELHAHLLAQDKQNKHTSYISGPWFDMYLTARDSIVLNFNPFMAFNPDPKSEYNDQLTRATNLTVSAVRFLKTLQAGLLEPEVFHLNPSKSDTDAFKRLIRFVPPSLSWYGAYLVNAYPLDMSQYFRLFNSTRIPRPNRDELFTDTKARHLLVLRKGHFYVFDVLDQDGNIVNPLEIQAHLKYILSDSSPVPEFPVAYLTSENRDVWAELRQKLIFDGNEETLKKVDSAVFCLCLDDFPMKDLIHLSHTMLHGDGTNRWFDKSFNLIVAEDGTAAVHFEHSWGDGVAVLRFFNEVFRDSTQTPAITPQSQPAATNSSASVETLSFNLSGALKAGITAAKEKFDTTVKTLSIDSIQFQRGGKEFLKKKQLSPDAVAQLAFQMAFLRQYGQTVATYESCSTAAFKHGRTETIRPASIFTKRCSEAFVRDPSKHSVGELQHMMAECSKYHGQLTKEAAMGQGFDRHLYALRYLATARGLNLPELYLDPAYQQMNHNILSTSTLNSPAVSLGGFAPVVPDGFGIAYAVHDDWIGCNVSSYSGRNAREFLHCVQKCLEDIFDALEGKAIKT

[4] = biological target: T4, Carnitine O-palmitoyltransferase 1, liver isoform (Homo sapiens, UniProt P50416); experiment: (§2) SUPPLEMENTARY: Inhibition of Carnitine palmitoyltransferase 1, liver isoform
T4 sequence (P50416 whole entry): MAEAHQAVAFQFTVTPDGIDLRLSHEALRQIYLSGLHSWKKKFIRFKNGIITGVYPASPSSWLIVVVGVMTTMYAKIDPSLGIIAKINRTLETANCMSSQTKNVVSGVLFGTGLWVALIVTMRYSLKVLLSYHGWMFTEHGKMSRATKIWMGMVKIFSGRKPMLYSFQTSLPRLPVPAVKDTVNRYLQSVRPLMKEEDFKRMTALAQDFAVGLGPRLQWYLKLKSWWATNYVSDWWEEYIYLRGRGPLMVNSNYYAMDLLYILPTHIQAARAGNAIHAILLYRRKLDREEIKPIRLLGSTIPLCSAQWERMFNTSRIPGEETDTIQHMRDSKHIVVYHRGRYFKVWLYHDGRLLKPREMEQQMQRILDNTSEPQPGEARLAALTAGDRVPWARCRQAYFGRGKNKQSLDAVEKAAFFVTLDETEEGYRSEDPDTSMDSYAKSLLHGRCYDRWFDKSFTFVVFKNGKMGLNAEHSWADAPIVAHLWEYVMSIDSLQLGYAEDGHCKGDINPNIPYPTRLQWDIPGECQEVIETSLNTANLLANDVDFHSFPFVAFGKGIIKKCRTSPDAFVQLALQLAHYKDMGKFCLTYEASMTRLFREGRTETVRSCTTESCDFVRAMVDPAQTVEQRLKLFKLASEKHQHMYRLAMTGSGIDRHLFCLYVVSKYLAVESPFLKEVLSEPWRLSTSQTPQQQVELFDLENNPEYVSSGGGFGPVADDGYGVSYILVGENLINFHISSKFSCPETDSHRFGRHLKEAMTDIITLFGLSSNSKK

[5] = biological target: T5, Carnitine O-palmitoyltransferase 1, liver isoform (Rattus norvegicus, UniProt P32198); experiment: as §2
T5 sequence (P32198 whole entry): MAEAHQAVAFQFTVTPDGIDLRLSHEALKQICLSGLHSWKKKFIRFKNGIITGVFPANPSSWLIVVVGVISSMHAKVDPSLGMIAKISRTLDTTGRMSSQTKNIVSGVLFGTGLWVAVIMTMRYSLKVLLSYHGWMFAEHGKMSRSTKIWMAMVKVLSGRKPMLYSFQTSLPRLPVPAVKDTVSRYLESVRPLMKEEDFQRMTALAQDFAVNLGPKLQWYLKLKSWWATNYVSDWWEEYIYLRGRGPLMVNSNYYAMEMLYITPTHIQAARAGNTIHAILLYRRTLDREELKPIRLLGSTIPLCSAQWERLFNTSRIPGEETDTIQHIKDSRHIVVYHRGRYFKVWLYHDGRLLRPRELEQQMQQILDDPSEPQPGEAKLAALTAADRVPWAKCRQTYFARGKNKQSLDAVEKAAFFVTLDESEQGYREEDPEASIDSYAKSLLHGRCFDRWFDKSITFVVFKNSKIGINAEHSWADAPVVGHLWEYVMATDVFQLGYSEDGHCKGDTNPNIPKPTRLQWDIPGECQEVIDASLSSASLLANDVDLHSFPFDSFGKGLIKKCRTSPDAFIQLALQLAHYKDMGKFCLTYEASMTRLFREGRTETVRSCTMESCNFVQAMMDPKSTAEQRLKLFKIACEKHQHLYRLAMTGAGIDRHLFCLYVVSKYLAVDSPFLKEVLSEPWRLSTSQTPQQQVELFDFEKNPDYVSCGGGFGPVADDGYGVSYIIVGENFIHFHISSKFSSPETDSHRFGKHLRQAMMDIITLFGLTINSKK

[6] = SUPPLEMENTARY: Lyophilisation Solubility Assay (LYSA); type: physicochemical; settings: read-out: Kinetic_solubility
[7] = SUPPLEMENTARY: Lipophilicity (log D) Determination by high-throughput shake-flask; type: physicochemical; settings: octanol/water
[8] = SUPPLEMENTARY: PAMPA permeability assay; type: physicochemical; settings: read-out: Permeability

Compound	IC50 [1] [µM]	IC50 [2] [µM]	IC50 [3] [µM]	IC50 [4] [µM]	IC50 [5] [µM]	solubility kinetic [6] [mg/mL]	logD [7]	Papp [8] [nm/s]
COc1ccc(Cl)cc1S(=O)(=O)N1CCOc2ncc(C(=O)Nc3ccccc3)cc21	> 100	> 100	> 100	0.27	0.237	0.004 (≈ 8.7 µM)	3.31	43.8
CC(=O)Nc1cccc(-c2nc([C@H]3CCCCN3C(=O)COc3ccccc3)n(C)n2)c1	43.4	> 100	> 100	0.201	0.282	0.063 (≈ 145 µM)	2.75	29.3
O=C(COc1ccncc1)N1CCCC[C@@H]1c1nnc(-c2cccc(C(F)(F)F)c2)[nH]1	10.4	43.5	41.2	0.165	0.194	0.078 (≈ 181 µM)	3.29	17.5
Cc1cc(-c2n[nH]c([C@H]3CCCCN3C(=O)COc3ccccc3)n2)n(C)n1	> 100	> 100	> 100	0.511	0.555	0.129 (≈ 339 µM)	2.65	52
COc1ccc(Cl)cc1S(=O)(=O)N1CCc2c(C)cc(C(=O)Nc3ccc(C(=O)O)c(Cl)c3)cc21	3.53	0.591	0.967	0.0661	0.157	0.311 (≈ 581 µM)	0.66	15.2
NS(=O)(=O)c1ccc(-c2noc(C3C4CC4CN3C(=O)COc3ccccc3)n2)cc1 (configuration not stated)	> 100	> 100	> 100	0.11	0.0908	0.045 (≈ 102 µM)	2.04	51.7
COc1ccc(C)cc1S(=O)(=O)n1ccc2ccc(C(=O)Nc3ccc(CC(=O)O)cc3)cc21	1.54	83.9	> 100	0.203	0.118	0.226 (≈ 472 µM)	0.79	28.2
COc1ccc(Cl)cc1S(=O)(=O)N1COc2c(C)cc(C(=O)Nc3nc(CC(=O)O)cs3)cc21	0.844	40.9	> 100	0.0801	0.0654	0.195 (≈ 372 µM)	0.58	27.7
NS(=O)(=O)c1ccc(C#C[C@H]2CCCCN2C(=O)COc2ccccc2)cc1	> 100	> 100	> 100	0.0866	0.0838	0.008 (≈ 20.1 µM)	3.01	41.1
O=C(COc1ccccc1)N1CCCC[C@@H]1c1noc(C2(C(F)(F)F)CC2)n1	29.7	> 100	> 100	0.0858	1.43	< 0.001	3.2	53.7
O=C([C@H]1CCCCN1C(=O)COc1ccccc1)N1Cc2ccc(OCC3CC3)cc2C1	> 100	0.701	1.12	0.259	0.263	0.005 (≈ 11.5 µM)	2.97	27
CCN1C(=O)CC(C)(C)c2ccc(-c3nc([C@H]4CCCCN4C(=O)COc4ccccc4)no3)cc21	> 100	> 100	> 100	0.168	0.172	< 0.001	> 3	4
COc1ccc(Cl)cc1S(=O)(=O)N1C[C@@H](C)c2ccc(C(=O)Nc3ccc(C(=O)O)cc3)cc21	6.78	0.453	1.42	0.0367	0.0289	0.006 (≈ 12 µM)	2.98	28.6
CN(C)C(=O)CCC(=O)Nc1cc(F)cc(-c2noc([C@H]3CCCCN3C(=O)COc3ccccc3)n2)c1	> 100	14.1	> 100	0.111	0.253	< 0.001	3.16	8.3
